The test system of data set [1] is DENV2. Briefly: Viral titer (plaque) reduction assay, DENV2 in A549 cells. In kind it is cell-based, Dengue virus serotype 2. The note with it: Dengue virus, DENV2, A549 cells. How it is done:
Viral Titer Reduction Assay. A viral titer reduction assay was used to determine the compounds' effect on DENV2 and ZIKV strains, as described previously. […] Human A549 lung carcinoma cells and human primary neural progenitor cells were used, as described previously. […] 13:e1006411 (2017), which are hereby incorporated by reference in their entirety. All experiments were performed in triplicates.
A viral plaque reduction assay was performed next to evaluate the antiviral efficacy of these derivatives. Human lung carcinoma A549 cells were infected with DENV2 in the presence of a concentration series of derivatives or a dimethyl sulfoxide (DMSO) control, and viral titers were measured at 48 hrs post-infection, as described previously.

In data set [2] the test system is ZIKV NS3. Briefly: Western blot of ZIKV NS3 and polyprotein precursor in infected A549 cells. The data set is classed as cell-based, Zika virus. The note with it: MOI 0.1, 48 hrs. Here is the method:
FIGS. 6A-6C show mechanism of action studies. […] Viral titers were quantified using plaque forming assay 48 hrs post-infection. DMSO was added to control. N=3. ***, p<0.001. […] N=3. […] Right, Band intensities of PP and NS3 normalized to the GAPDH control (N=3). […] Li et al., “Existing Drugs as Broad-Spectrum and Potent Inhibitors for Zika Virus by Targeting NS2B-NS3 Interaction,” Cell Res. 27:1046-1064 (2017), which is hereby incorporated by reference in its entirety. At 48 hrs post-infection, cells were washed, harvested, and protected by protease inhibitor cocktail prior to lysis by SDS-PAGE loading buffer. Upon incubation at 95° C. for 10 min, sample was subjected to Western blot analysis with anti-ZIKV NS3 (GTX133309, GeneTex, Inc.) and anti-GAPDH (CB1001, EMD Millipore) as primary antibodies. Error bars in all panels represent the standard deviations at each condition.
Western Blot. Western blot was performed using anti-ZIKV NS3 (GTX133309, GeneTex, Inc.) and anti-GAPDH (CB1001, EMD Millipore) antibodies, as described previously. Li et al., “Existing Drugs as Broad-Spectrum and Potent Inhibitors for Zika Virus by Targeting NS2B-NS3 Interaction,” Cell Res. 27:1046-1064 (2017) and Brecher et al., “A Conformational Switch High-Throughput Screening Assay and Allosteric Inhibition of the Flavivirus NS2B-NS3 Protease,” PLoS Pathog. […]
(Immunoblotting shows a protein as a band on a membrane.)

A short description of data set [3]: Repeated oral dosing toxicity in mice. The data set is classed as in vivo, mouse. The note with it: repeated oral dosing 40 mg/kg/day for 7 days.
Data set [4] has as its target T1, viral NS3 protease (Dengue virus type 2, UniProt P29990).
T1 construct: made in house
Briefly: Protein thermal shift assay (PTSA). In kind it is binding. An excerpt:
Li et al., “Existing Drugs as Broad-Spectrum and Potent Inhibitors for Zika Virus by Targeting NS2B-NS3 Interaction,” Cell Res. 27:1046-1064 (2017), which is hereby incorporated by reference in its entirety.

Data set [5] deals with 3D organoids. In words: Toxic effect on 3D organoids. The note with it: 1.5 μM. In kind it is cell-based, human. An excerpt: Culturing of human iPSCs. Human iPSC F11350.1 culture was maintained in feed-free conditions using mTeSR1 medium (StemCell Technologies #85851) with 5× supplement (StemCell Technologies #85852). Cells were maintained on six-well plates coated with human embryonic stem cell-qualified Matrigel at a 1:60 dilution (Corning Catalog #354277) and passaged with ReLeSR (StemCell Technologies #05872). Cortical 3D organoids were generated based on the protocol described by Yoon et al. Yoon et al., “Reliability of Human Cortical Organoid Generation,” Nat. Methods. […] Briefly, iPSCs were dissociated with accutase (ThermoFisher #A1110501) and then plated at a density of 3×10^6 cells per well in AggreWell 800 24-well plate (StemCell Technologies #34811) in Essential 8™ medium (ThermoFisher #A1517001) supplemented with 10 μM rock inhibitor (Tocris #Y27632). The plate was centrifuged at 100×g for 3 min and incubated at 37° C. overnight. […]
To evaluate if JMX0207 protects organoids from ZIKV infections, a full-length infectious ZIKV clone expressing Venus fluorescent protein (ZIKV-Venus) was first generated. […] ZIKV infection was quantified by a plaque forming unit (PFU) assay at 5 dpi and by fluorescence imaging at 7 dpi, respectively.

A short description of data set [6]: WST-8 cell proliferation cytotoxicity assay. The settings on record: human; Table 4, preliminary SAR, A549 cells; read-out: CC50. The data set is classed as cell-based, human. How it is done:
(§1) Cytotoxicity Assay. […] All experiments were performed in triplicates.
(§2) To address this concern, next the compound cytotoxicity CC50 was measured using a WST-8 cell proliferation assay, as described previously.
In general terms: Tetrazolium dyes change colour on reduction, which living cells bring about.

The test system of data set [7] is A549 cells. Briefly: WST-8 cell proliferation cytotoxicity assay. The settings on record: A549 cells; read-out: CC50 (A549). The data set is classed as cell-based, human. Here is the method: as §1, §2

The structures appear in SMILES notation. Read-outs that look alike come from different tables or passages of the source.

T1 sequence (P29990 1476-1659): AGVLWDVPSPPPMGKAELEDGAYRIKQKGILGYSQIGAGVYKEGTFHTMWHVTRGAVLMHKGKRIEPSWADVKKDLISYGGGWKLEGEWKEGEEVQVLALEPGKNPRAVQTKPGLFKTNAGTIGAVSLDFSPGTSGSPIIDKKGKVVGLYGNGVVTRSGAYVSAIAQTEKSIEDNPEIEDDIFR

As usually defined, the EC50 is the midpoint of the concentration-response curve. By CC50 is commonly meant the concentration that lowers cell viability or growth by half. On to `O=C(Nc1ccc([N+](=O)[O-])cc1Cl)c1cccc([N+](=O)[O-])c1O` [JMX0207, N-(2-Chloro-4-nitrophenyl)-2-hydroxy-3-nitrobenzamide], for which the EC50 in data set [1] (48 hrs post-infection, read-out: EC50-DN2 (A549)) stood at 0.31 µM; in data set [1] (Table 4, preliminary SAR, read-out: EC50-DN2), 0.36 µM. Besides, in data set [2], the “unprocessed viral polyprotein precursor (PP)” value was “dose-dependent increase of a protein with high molecular weight”. The “viral NS3 protein production” value in data set [2] is on record as “dose-dependent reduction of viral NS3 protein production”. Besides, the sign of toxicity entry in data set [3] was “did not display any sign of toxicity”. Also, the “increase in Tm of the viral protein” value in data set [4] worked out at 0.75 °C. In addition, the “toxic effect on the 3D organoids” value in data set [5] is recorded as “did not have any toxic effect”. In addition, the CC50 came out at 33.9 µM in data set [6] and 31.9 µM in data set [7].

For the origin of these results see US11767303B2, “Compounds and methods for inhibiting viral replication and methods of treating and preventing flaviviral infections” (priority 2020, dated 2023).
